According to US11198681B2, “Heteroaryl inhibitors of PAD4” (Padlock Therapeutics, Inc., priority 2016, dated 2021):
Where two headings read alike, the source gives them in different places.

Target: hPAD4 (Homo sapiens (Human), UniProt Q9UM07)
Assay: hPAD4 AR assay (Table 2)
Format: biochemical
[1] = read-out: hPAD4 AR pIC50 (converted)

Chain of hPAD4 (Q9UM07 whole entry): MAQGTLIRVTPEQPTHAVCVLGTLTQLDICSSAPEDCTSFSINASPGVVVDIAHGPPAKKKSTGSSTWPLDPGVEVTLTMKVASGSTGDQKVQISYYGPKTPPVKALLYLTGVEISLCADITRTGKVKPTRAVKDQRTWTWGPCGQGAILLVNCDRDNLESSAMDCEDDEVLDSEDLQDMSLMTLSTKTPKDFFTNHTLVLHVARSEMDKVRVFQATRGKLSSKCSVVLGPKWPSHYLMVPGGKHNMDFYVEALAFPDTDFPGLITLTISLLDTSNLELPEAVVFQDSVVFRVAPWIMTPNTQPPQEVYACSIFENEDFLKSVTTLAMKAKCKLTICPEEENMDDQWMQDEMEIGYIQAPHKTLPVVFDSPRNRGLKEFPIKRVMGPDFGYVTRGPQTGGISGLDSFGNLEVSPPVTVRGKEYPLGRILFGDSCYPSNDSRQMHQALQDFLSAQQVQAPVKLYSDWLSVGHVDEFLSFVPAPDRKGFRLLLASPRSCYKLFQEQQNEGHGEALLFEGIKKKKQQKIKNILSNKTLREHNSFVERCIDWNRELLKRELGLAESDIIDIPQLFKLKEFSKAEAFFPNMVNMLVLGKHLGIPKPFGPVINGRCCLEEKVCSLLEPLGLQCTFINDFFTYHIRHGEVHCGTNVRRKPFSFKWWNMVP

Row | Structure (SMILES) | IC50 (read-out: hPAD4 AR IC50) [nM] | IC50 [1] [nM]
1 | COc1cc(C(=O)N2C[C@H]3CC[C@@H]2[C@@H]3N)cc2nc(-c3ccc(C#N)n3C3CC3)n(C)c12 [I-81, 5-{5-[(1R,4R,7R)-7-Amino-2-azabicyclo[2.2.1]heptane-2-carbonyl]-7-methoxy-1-methyl-1H-1,3-benzodiazol-2-yl}-1-cyclopropyl-1H-pyrrole-2-carbonitrile] | < 1000 | < 1000
2 | COc1cc(C(=O)N2C[C@H]3CC[C@@H]2[C@@H]3N)cc2nc(-c3ccc(C#N)n3CC(F)(F)F)n(C)c12 [I-82, 5-{5-[(1R,4R,7R)-7-Amino-2-azabicyclo[2.2.1]heptane-2-carbonyl]-7-methoxy-1-methyl-1H-1,3-benzodiazol-2-yl}-1-(2,2,2-trifluoroethyl)-1H-pyrrole-2-carbonitrile] | < 1000 | < 1000
3 | COc1cc(C(=O)N2C[C@H]3CC[C@@H]2[C@@H]3N)cc2nc(-c3ccc(C#N)n3C[C@@H](C)c3ccccc3)n(C)c12 [I-84] | < 1000 | < 1000
4 | COc1cc(C(=O)N2C[C@H]3CC[C@@H]2[C@@H]3N)cc2nc(-c3ccc(C#N)n3C[C@H](C)c3ccccc3)n(C)c12 [I-85] | < 1000 | < 1000
5 | CCn1c(-c2cnc(-c3ccccc3)n2CC2CC2)nc2cc(C(=O)N3C[C@H]4CC[C@@H]3[C@@H]4N)cc(OC)c21 [I-86, (1R,4R,7R)-2-{2-[1-(Cyclopropylmethyl)-2-phenyl-1H-imidazol-5-yl]-1-ethyl-7-methoxy-1H-1,3-benzodiazole-5-carbonyl}-2-azabicyclo[2.2.1]heptan-7-amine] | < 1000 | < 1000
6 | Cn1c(-c2cnc(-c3ccccc3)n2CC2CC2)nc2cc(C(=O)N3C[C@H]4CC[C@@H]3[C@@H]4N)cc(F)c21 [I-87] | < 1000 | < 1000
7 | COc1cccc(-c2nc3cc(C(=O)N4C[C@H]5CC[C@@H]4[C@@H]5N)cc(OC)c3n2C)n1 [I-88] | > 10000 | 10000 to 100000
8 | COc1cc(C(=O)N2C[C@H]3CC[C@@H]2[C@@H]3N)cc2nc(-c3ccc(C#N)n3C[C@H]3C[C@@](C)(OC)C3)n(C)c12 [I-89, 5-{5-[(1R,4R,7R)-7-Amino-2-azabicyclo[2.2.1]heptane-2-carbonyl]-7-methoxy-1-methyl-1H-1,3-benzodiazol-2-yl}-1-{[(1R,3S)-3-methoxy-3-methylcyclobutyl]methyl}-1H-pyrrole-2-carbonitrile] | < 1000 | < 1000
9 | CCc1c(-c2nc3cc(C(=O)N4C[C@H]5CC[C@@H]4[C@@H]5N)cc(OC)c3n2C)ccn1S(=O)(=O)c1ccc(C)cc1 [I-92] | < 1000 | < 1000

Other lines, results leading:

Row | IC50 (read-out: hPAD4 AR IC50) [nM] | IC50 [1] [nM] | Structure (SMILES)
10 | < 1000 | < 1000 | COc1cc(C(=O)N2C[C@H]3CC[C@@H]2[C@@H]3N)cc2nc(-c3cccc(=O)n3CC3CC3)n(C)c12 [I-102, 6-{5-[(1R,4R,7R)-7-Amino-2-azabicyclo[2.2.1]heptane-2-carbonyl]-7-methoxy-1-methyl-1H-1,3-benzodiazol-2-yl}-1-(cyclopropylmethyl)-1,2-dihydropyridin-2-one]
11 | < 1000 | < 1000 | COc1cc(C(=O)N2C[C@H]3CC[C@@H]2[C@@H]3N)cc2nc(-c3cccnc3CC3CC3)n(C)c12 [I-105, (1R,4R,7R)-2-{2-[2-(Cyclopropylmethyl)pyridin-3-yl]-7-methoxy-1-methyl-1H-1,3-benzodiazole-5-carbonyl}-2-azabicyclo[2.2.1]heptan-7-amine]
12 | < 1000 | < 1000 | COc1cc(C(=O)N2C[C@H]3CC[C@@H]2[C@@H]3N)cc2nc(-c3cccnc3CC3CC3C)n(C)c12 (some centres unmarked) [I-108]
13 | < 1000 | < 1000 | COc1cc(C(=O)N2C[C@H]3CC[C@@H]2[C@@H]3N)cc2nc(-c3ccc(Br)c(=O)n3CC3CC3)n(C)c12 [I-111]
14 | < 1000 | < 1000 | COc1cc(C(=O)N2C[C@H]3CC[C@@H]2[C@@H]3N)cc2nc(-c3ccc(C)c(=O)n3CC3CC3)n(C)c12 [I-112, 6-{5-[(1R,4R,7R)-7-Amino-2-azabicyclo[2.2.1]heptane-2-carbonyl]-7-methoxy-1-methyl-1H-1,3-benzodiazol-2-yl}-1-(cyclopropylmethyl)-3-methyl-1,2-dihydropyridin-2-one]
15 | < 1000 | < 1000 | COc1cc(C(=O)N2C[C@H]3CC[C@@H]2[C@@H]3N)cc2nc(-c3ccc(C)nc3CC3CC3)n(C)c12 [I-115]
16 | < 1000 | < 1000 | COc1cc(C(=O)N2C[C@H]3CC[C@@H]2[C@@H]3N)cc2nc(-c3ccc(F)nc3CC3CC3)n(C)c12 [I-117, (1R,4R,7R)-2-{2-[2-(Cyclopropylmethyl)-6-fluoropyridin-3-yl]-7-methoxy-1-methyl-1H-1,3-benzodiazole-5-carbonyl}-2-azabicyclo[2.2.1]heptan-7-amine]
